Laboratory results from US9932637B2, “Genetic polymorphisms associated with cardiovascular disorders and drug response, methods of detection and uses thereof” (CELERA CORPORATION, priority 2003, dated 2018).

Test system: patients with prior myocardial infarction (CARE study)
Assay: CARE: association of SNPs with pravastatin treatment in cardiovascular events prevention (logistic regression, odds ratio pravastatin vs placebo by genotype; Table 8)
Assay type: in vivo, human
Settings: for Definite Nonfatal MI, n/total (%) / Fatal/Nonfatal MI (def & prob), n/total (%) / MI (Fatal/Nonfatal), n/total (%) / Nonfatal MI (def & prob), n/total (%): BCL2A1 hCV7509650, All Patients
From the text: In order to identify genetic markers associated with acute coronary events (e.g. MI, stroke, unstable angina, congestive heart failure, etc.) or response to statin treatment for the prevention of coronary events, samples from the Cholesterol and Recurrent Events (CARE) study (a randomized multicentral double-blinded trial on secondary prevention of acute coronary events with pravastatin) (Sacks et al., 1991, Am. J. Cardiol. 68: 1436-1446) were genotyped. A well-documented myocardial infarction (MI) was one of the enrollment criteria for entry into the CARE study. Patients were enrolled in the CARE trial from 80 participating study centers. […] Patients were randomized to receive either 40 mg of pravastatin once daily or a matching placebo. The primary endpoint of the trial was death from coronary heart disease and the median duration of follow-up was 5.0 years (range, 4.0 to 6.2 years). […] Secondary endpoints of other related cardiovascular or metabolic disease events, and changes in clinical variables were also recorded in pravastatin-treated and placebo groups. All individuals included in the study had signed a written informed consent form and the study protocol was approved by the respective Institutional Review Boards (IRBs).
For genotyping SNPs in CARE patient samples, DNA was extracted from blood samples using conventional DNA extraction methods such as the QIA-amp kit from Qiagen. Genotypes were obtained on an ABI PRISM® 7900HT Sequence Detection PCR system (Applied Biosystems, Foster City, Calif.) by kinetic allele-specific PCR, similar to the method described by Germer et al. (Germer S., Holland M. J., Higuchi R. 2000, Genome Res. 10: 258-266).
Statistical analysis for association of SNPs with pravastatin treatment in cardiovascular events prevention (Table 8) was carried out using an overall logistic regression model that included an intercept, a parameter for the effect of a genotype containing two rare alleles versus a genotype containing no rare alleles, a parameter for the effect of a genotype containing one rare allele versus a genotype containing no rare alleles, a parameter for the effect of use of pravastatin versus the use of placebo, and parameters for the interaction effects between SNP genotypes and pravastatin use. The test of the overall model is a chi-square test with two degrees of freedom for analyses containing all three genotypes, and one degree of freedom for analyses containing two genotypes.
Effect sizes were estimated through odds ratios (pravastatin group versus placebo) for carriers of each genotype (groups of 0, 1, and 2 minor allele carriers). The effect was considered to be significant if p-value for testing whether any of the interactions between SNP genotypes and pravastatin use were <0.05. […] Odds ratios less than one indicate that the specific SNP allele has a protective effect and odds ratios greater than one indicate that the specific SNP allele has an adverse effect.

[1] = CCL4 hCV12120554, All Patients, 0 Rare Alleles, Prava arm
[2] = CCL4 hCV12120554, All Patients, 1 Rare Allele, Prava arm

CC[C@H](C)C(=O)O[C@H]1C[C@H](O)C=C2C=C[C@H](C)[C@H](CC[C@@H](O)C[C@@H](O)CC(=O)O)[C@H]21 [pravastatin]
Odds ratio pravastatin vs placebo (APOE hCV905013, All Patients, Nonfatal MI (Probable/Definite), 1 rare allele): 0.91
Odds ratio pravastatin vs placebo (APOE hCV905013, All Patients, Nonfatal MI (Probable/Definite), 2 rare alleles): 0.49
Definite Nonfatal MI, n/total (%) (0 Rare Alleles, Prava arm): (6.3%)
Fatal/Nonfatal MI (def & prob), n/total (%) (0 Rare Alleles, Prava arm): (8.7%)
MI (Fatal/Nonfatal), n/total (%) (0 Rare Alleles, Prava arm): (9.1%)
Nonfatal MI (def & prob), n/total (%) (0 Rare Alleles, Prava arm): (8.1%)
Definite Nonfatal MI, n/total (%) (1 Rare Allele, Prava arm): (7.9%)
Fatal/Nonfatal MI (def & prob), n/total (%) (1 Rare Allele, Prava arm): (11.4%)
MI (Fatal/Nonfatal), n/total (%) (1 Rare Allele, Prava arm): (11.4%)
Nonfatal MI (def & prob), n/total (%) (1 Rare Allele, Prava arm): (10.2%)
Definite Nonfatal MI, n/total (%) (2 Rare Alleles, Prava arm): (3.9%)
Fatal/Nonfatal MI (def & prob), n/total (%) (2 Rare Alleles, Prava arm): (6.9%)
MI (Fatal/Nonfatal), n/total (%) (2 Rare Alleles, Prava arm): (6.9%)
Nonfatal MI (def & prob), n/total (%) (2 Rare Alleles, Prava arm): (6.9%)
Odds ratio pravastatin vs placebo (BCL2A1 hCV7509650, All Patients, Definite Nonfatal MI, 0 rare alleles): 0.55
Odds ratio pravastatin vs placebo (BCL2A1 hCV7509650, All Patients, Definite Nonfatal MI, 1 rare allele): 1.09
Odds ratio pravastatin vs placebo (BCL2A1 hCV7509650, All Patients, Definite Nonfatal MI, 2 rare alleles): 0.35
Odds ratio pravastatin vs placebo (BCL2A1 hCV7509650, All Patients, Fatal/Nonfatal MI (def & prob), 0 rare alleles): 0.51
Odds ratio pravastatin vs placebo (BCL2A1 hCV7509650, All Patients, Fatal/Nonfatal MI (def & prob), 1 rare allele): 1.00
Odds ratio pravastatin vs placebo (BCL2A1 hCV7509650, All Patients, Fatal/Nonfatal MI (def & prob), 2 rare alleles): 0.46
Odds ratio pravastatin vs placebo (BCL2A1 hCV7509650, All Patients, MI (Fatal/Nonfatal), 0 rare alleles): 0.53
Odds ratio pravastatin vs placebo (BCL2A1 hCV7509650, All Patients, MI (Fatal/Nonfatal), 1 rare allele): 0.99
Odds ratio pravastatin vs placebo (BCL2A1 hCV7509650, All Patients, MI (Fatal/Nonfatal), 2 rare alleles): 0.46
Odds ratio pravastatin vs placebo (BCL2A1 hCV7509650, All Patients, Nonfatal MI (def & prob), 0 rare alleles): 0.52
Odds ratio pravastatin vs placebo (BCL2A1 hCV7509650, All Patients, Nonfatal MI (def & prob), 1 rare allele): 1.09
Odds ratio pravastatin vs placebo (BCL2A1 hCV7509650, All Patients, Nonfatal MI (def & prob), 2 rare alleles): 0.56
Cardiovascular Mortality, n/total (%) [1]: (4.0%)
Fatal Atherosclerotic Cardiovascular Disease, n/total (%) [1]: (4.0%)
Fatal Coronary Heart Disease, n/total (%) [1]: (3.5%)
Fatal/Nonfatal Atherosclerotic CV Disease, n/total (%) [1]: (34.4%)
Total Coronary Heart Disease Events, n/total (%) [1]: (30.5%)
Total Mortality, n/total (%) [1]: (6.0%)
Cardiovascular Mortality, n/total (%) [2]: (2.5%)
Fatal Atherosclerotic Cardiovascular Disease, n/total (%) [2]: (2.2%)
Fatal Coronary Heart Disease, n/total (%) [2]: (2.2%)
Fatal/Nonfatal Atherosclerotic CV Disease, n/total (%) [2]: (29.9%)
Total Coronary Heart Disease Events, n/total (%) [2]: (25.1%)
Total Mortality, n/total (%) [2]: (4.0%)
Odds ratio pravastatin vs placebo (CCL4 hCV12120554, All Patients, Cardiovascular Mortality, 0 rare alleles): 1.30
Odds ratio pravastatin vs placebo (CCL4 hCV12120554, All Patients, Cardiovascular Mortality, 1 rare allele): 0.31
Odds ratio pravastatin vs placebo (CCL4 hCV12120554, All Patients, Fatal Atherosclerotic Cardiovascular Disease, 0 rare alleles): 1.30
Odds ratio pravastatin vs placebo (CCL4 hCV12120554, All Patients, Fatal Atherosclerotic Cardiovascular Disease, 1 rare allele): 0.28
Odds ratio pravastatin vs placebo (CCL4 hCV12120554, All Patients, Fatal Coronary Heart Disease, 0 rare alleles): 1.28
Odds ratio pravastatin vs placebo (CCL4 hCV12120554, All Patients, Fatal Coronary Heart Disease, 1 rare allele): 0.31
Odds ratio pravastatin vs placebo (CCL4 hCV12120554, All Patients, Fatal/Nonfatal Atherosclerotic CV Disease, 0 rare alleles): 0.86
Odds ratio pravastatin vs placebo (CCL4 hCV12120554, All Patients, Fatal/Nonfatal Atherosclerotic CV Disease, 1 rare allele): 0.55
Odds ratio pravastatin vs placebo (CCL4 hCV12120554, All Patients, Total Coronary Heart Disease Events, 0 rare alleles): 0.87
Odds ratio pravastatin vs placebo (CCL4 hCV12120554, All Patients, Total Coronary Heart Disease Events, 1 rare allele): 0.55
Odds ratio pravastatin vs placebo (CCL4 hCV12120554, All Patients, Total Mortality, 0 rare alleles): 1.17
Odds ratio pravastatin vs placebo (CCL4 hCV12120554, All Patients, Total Mortality, 1 rare allele): 0.40
Total Coronary Heart Disease Events, n/total (%) (CCL11 hCV7449808, All Patients, 0 Rare Alleles, Prava, n/total 310/1025): (30.2%)
Fatal/Non-fatal Atherosclerotic CV Disease, n/total (%) (CCL11 hCV7449808, All Patients, 0 Rare Alleles, Prava, n/total 359/1025): (35.0%)
Hosp. for Cardiovascular Disease, n/total (%) (CCL11 hCV7449808, All Patients, 0 Rare Alleles, Prava, n/total 423/1025): (41.3%)
Total Cardiovascular Disease Events, n/total (%) (CCL11 hCV7449808, All Patients, 0 Rare Alleles, Prava, n/total 436/1025): (42.5%)
Total Coronary Heart Disease Events, n/total (%) (CCL11 hCV7449808, All Patients, 1 Rare Allele, Prava, n/total 127/448): (28.3%)
Fatal/Non-fatal Atherosclerotic CV Disease, n/total (%) (CCL11 hCV7449808, All Patients, 1 Rare Allele, Prava, n/total 139/448): (31.0%)
Hosp. for Cardiovascular Disease, n/total (%) (CCL11 hCV7449808, All Patients, 1 Rare Allele, Prava, n/total 176/448): (39.3%)
Total Cardiovascular Disease Events, n/total (%) (CCL11 hCV7449808, All Patients, 1 Rare Allele, Prava, n/total 181/448): (40.4%)
